SMILES strings stand for the structures.

The series is described as follows: Human HepG2 cell viability assay in 384 well format. Also on record: dose 125 nL, time 70.5 hour; cytotoxicity at 70.5 h: concentration not given beside the values. The format is toxicity, cell-based. The conditions noted are these: HepG2 cells, read-out: Inhibition.
Turning to `Cc1nc(-n2nc(C3CC3)cc2NC(=O)C(C)C)[nH]c(=O)c1C`, the cytotoxicity at 70.5 h is 40.2%.
Take `Cc1cc(=O)[nH]c(-n2nc(C)c(CCC(=O)NCc3cccs3)c2C)n1`: the cytotoxicity at 70.5 h was -0.337%.
Take `CCN(CC)CCSc1nnc(N2CCN(c3ccc(F)cc3)CC2)s1`: the cytotoxicity at 70.5 h was -5.54%.
As for `CCSc1nnc(N2CCN(c3ccccc3)CC2)s1`, the cytotoxicity at 70.5 h came out at 0.78%.
For the compound `CCN(CC)CCSc1nnc(N2CCN(c3ccccc3)CC2)s1`, the cytotoxicity at 70.5 h was -2.44%.
Turning to `Cc1nnc(C2CCN(C(=O)c3ccc(-n4cccc4)cc3)CC2)s1`, the cytotoxicity at 70.5 h was 28%.
On to `COc1nn(C)cc1C(=O)N1CCC(c2nnc(C(C)C)o2)CC1`, for which the cytotoxicity at 70.5 h was -4.14%.
Turning to `CC(C)n1cc(C(=O)NCCN(C)C)c2n[nH]c(=O)c-2c1`, the cytotoxicity at 70.5 h came out at 1.2%.
Regarding `COCCCNC(=O)c1cn(C(C)C)cc2c(=O)[nH]nc1-2`, the cytotoxicity at 70.5 h is -9.87%.
Take `COCC(C)NC(=O)c1cn(C(C)C)cc2c(=O)[nH]nc1-2` (configuration not stated): the cytotoxicity at 70.5 h is -6.59%.
Turning to `CCCc1noc(C2CC(=O)N(Cc3ccccc3)C2)n1` (configuration not stated), the cytotoxicity at 70.5 h is -8.97%.
Take `Cc1nn(C2CCS(=O)(=O)C2)c(C)c1CC(=O)NCc1ccccc1Cl` (configuration not stated): the cytotoxicity at 70.5 h was -4.52%.
For the compound `O=C(Nc1nc2c(s1)CCC2)NC1CCCC1`, the cytotoxicity at 70.5 h was -9.48%.
In the case of `COCCc1nnc(NC(=O)CSCc2ccccc2)o1`, the cytotoxicity at 70.5 h amounted to 1.82%.
With `Cc1nccn1CC1CCN(C(=O)Cc2ccccc2)CC1`, the cytotoxicity at 70.5 h was found to be 24.1%.
The value for `O=S(=O)(C1CC1)N1CCC(Cn2cccn2)CC1` was -7.23%; that for `CCNC(=O)N1CCN(c2nc3ccccc3n2C)CC1` was -3.78%.
The value for `COCC(=O)N1CCC(c2ccc(OC)cc2)C1` (configuration not stated) was -16.3%.
In the case of `COc1nn(C)cc1C(=O)N1CCC(c2ccccc2)C1` (configuration not stated), the cytotoxicity at 70.5 h was -1.63%.
As for `CN1CCC(CNC(=O)NCc2ccc(F)cc2)CC1`, the cytotoxicity at 70.5 h is -1.23%.
With `COc1ccccc1S(=O)(=O)NCC(c1cccn1C)N(C)C` (configuration not stated) the figure was -2.15%; with `Cn1cccc1CN(C(=O)Cc1cccs1)C1CC1`, -2.78%; with `Cn1cccc1C(O)CNC(=O)COc1ccccc1F` (configuration not stated), -8.88%.
Consider `Cn1cccc1C(O)CNC(=O)c1ccc2nsnc2c1` (configuration not stated), for which the cytotoxicity at 70.5 h was -14.5%.
Consider `COc1cc(C)c(C)cc1S(=O)(=O)NCC(O)c1cccn1C` (configuration not stated), for which the cytotoxicity at 70.5 h was -5.03%.
The value for `COc1ccc(S(=O)(=O)NCC(O)c2sccc2C)cc1C` (configuration not stated) was -3.59%; that for `O=C(Cc1ccc(F)cc1)NCC(O)(c1cccs1)C1CC1` (configuration not stated) was 13.2%; that for `O=C(NCC(O)(c1cccs1)C1CC1)NC1CCCCC1` (configuration not stated) was 10.9%.
Regarding `Cc1noc(C)c1S(=O)(=O)NCC(C)(O)c1ccc2c(c1)OCO2` (configuration not stated), the cytotoxicity at 70.5 h is -3.11%.
The value for `COc1ccc(CC(C)(O)CNC(=O)Cc2ccc(F)cc2)cc1` (configuration not stated) was -21%.
As for `CC(O)(CCc1ccccc1)CNC(=O)c1cccs1` (configuration not stated), the cytotoxicity at 70.5 h was -3.94%.
With `COc1ccc(C(=O)NCC(C)(O)CCc2ccccc2)cc1` (configuration not stated) the figure was 3.78%; with `O=C(NCC1(O)CCc2ccccc21)Nc1ccc2c(c1)OCO2` (configuration not stated), -3.18%.
For the compound `Cc1ccc(NC(=O)NCC2(O)CCCC2)cc1C`, the cytotoxicity at 70.5 h was -1.58%.
The value for `COc1ccc(S(=O)(=O)NCCC(O)c2ccccc2)c(C)c1` (configuration not stated) was -8.64%; that for `CCOc1ccc(NC(=O)NCC(C)(O)c2cccs2)cc1` (configuration not stated) was -8.04%.
As for `O=C(NCCc1ccccc1)NCC(O)c1cccs1` (configuration not stated), the cytotoxicity at 70.5 h was -14%.
For `CC(O)(CNC(=O)c1c(F)cccc1Cl)c1ccco1` (configuration not stated), the cytotoxicity at 70.5 h came out at 29.8%.
Regarding `CCCS(=O)(=O)N1CCN(CC(F)(F)F)CC1`, the cytotoxicity at 70.5 h is -5.82%.
Regarding `Cc1nc(C)c(CC(=O)NCc2ccc(F)cc2F)s1`, the cytotoxicity at 70.5 h was -11.3%.
For the compound `Cc1ccnc(OCC(=O)N2CCCC2)n1`, the cytotoxicity at 70.5 h is -0.226%.
`COc1ccc(N2CCN(C(=O)COc3nccc(C)n3)CC2)cc1`: the cytotoxicity at 70.5 h is -3.87%.
With `CN(CC(=O)NCC(F)(F)F)C(=O)c1ccc(=O)[nH]c1` the figure was -8.21%; with `Cc1cc(NC(=O)Cn2cnc(-c3cccs3)cc2=O)sn1`, 11.1%; with `COc1nn(C)cc1C(=O)NCC(=O)NCc1cccnc1`, -2.92%.
The value for `O=S(=O)(c1cccnc1)N1CCN(CC(O)c2cccs2)CC1` (configuration not stated) was -1.48%; that for `CCS(=O)(=O)N1CC(c2nc(-c3ccncc3)no2)C1` was -2.55%.
`O=C(c1ccccn1)N1CC[C@H]2C(=O)N(c3ccsc3)CCO[C@H]2C1`: the cytotoxicity at 70.5 h was -15.7%.
Take `COc1cc(N2CCc3ncnc(-c4ccoc4)c3CC2)ncn1`: the cytotoxicity at 70.5 h was -7.42%.
For `CNC(=O)[C@H]1CC[C@@H]2[C@@H](CCN2c2ncccn2)O1`, the cytotoxicity at 70.5 h worked out at 3.25%.
Consider `Cc1cc(CN2C[C@H]3CCC[C@@]3(COCC(=O)N3CCCC3)C2)no1`, for which the cytotoxicity at 70.5 h is -4.89%.
As to `CNC(=O)N1CCN(C(=O)C(C)C)CC2(CC(=O)N(C)C2)C1` (configuration not stated), the cytotoxicity at 70.5 h was -5.77%.
For `Cn1cccc1C(=O)N1CCC2(CC1)CCN2S(C)(=O)=O`, the cytotoxicity at 70.5 h was -4.8%.
Consider `Cn1cccc1C(=O)N1CCC2(CCCN2S(C)(=O)=O)CC1`, for which the cytotoxicity at 70.5 h is -8.2%.
As to `Cc1oncc1C(=O)N1CC[C@H]2CO[C@H](CN3CCCC3)[C@H]2C1`, the cytotoxicity at 70.5 h is -7.95%.
With `COc1cc(N2CC[C@H]3OCC[C@@]3(COc3nccc(C)n3)C2)ncn1` the figure was -17.3%; with `CCN1CC2(CC1=O)CN(C(=O)C(C)C)CCN(S(=O)(=O)CC)C2` (configuration not stated), -4.9%; with `CN(C)C(=O)N1CC2(CCN(S(=O)(=O)C3CC3)CC2)c2ccccc21`, 0.848%.
`Cc1nc(C)c2c(n1)CCN(Cc1ccsc1)CC2`: the cytotoxicity at 70.5 h is -0.781%.
The value for `O=C(Cc1cccs1)N1CCC2(CCCN(CC3CCOCC3)C2)C1` (configuration not stated) was -6.08%; that for `CCCS(=O)(=O)N1CCC2(CC1)CN(C(=O)N(C)C)c1ccccc12` was -10.2%; that for `O=S(=O)(C1CC1)N1CCCC2(COCCN(c3nncs3)C2)C1` (configuration not stated) was 12.7%.
With `O=C(C1CCC2(CCN(c3nncs3)CC2)C1)N1CCCC1` (configuration not stated), the cytotoxicity at 70.5 h is 9.17%.
The value for `CO[C@@H]1CC[C@H]2[C@H]1OCCN2S(=O)(=O)c1cn(C)cn1` was 0.221%.
Turning to `Cc1cccc(N2CC[C@@H]3[C@@H](CO[C@H]3CNC(=O)c3ccco3)C2)n1`, the cytotoxicity at 70.5 h is -0.126%.
Turning to `O=C(NCc1ccccc1)N1C[C@H]2C[C@H](C(=O)N3CCCC3)[C@@H](C1)O2`, the cytotoxicity at 70.5 h is -5.41%.
For `CC(C)C(=O)N1CCC12CCCN(C(=O)c1ccccc1)C2` (configuration not stated), the cytotoxicity at 70.5 h is -2.99%.
Regarding `CC(C)CNC(=O)c1nc2c(s1)CCN(C(=O)c1cccnc1)CC2`, the cytotoxicity at 70.5 h was -4.69%.
Regarding `Cc1cc(C(=O)NCCN2CCN(S(C)(=O)=O)CC2)no1`, the cytotoxicity at 70.5 h is -10.9%.
In the case of `CCCc1nnsc1C(=O)N1CCN(CC(C)O)CC1` (configuration not stated), the cytotoxicity at 70.5 h was -1.92%.
As for `O=C(NCc1ccc(Cl)cc1)N1CCN(CC(O)C2CC2)CC1` (configuration not stated), the cytotoxicity at 70.5 h was -8.1%.
In the case of `O=C(NCc1ccc(F)cc1)N1CCN(CC(O)C2CC2)CC1` (configuration not stated), the cytotoxicity at 70.5 h was -2.01%.
Take `OC(CN1CCN(Cc2cc(F)ccc2F)CC1)C1CC1` (configuration not stated): the cytotoxicity at 70.5 h amounted to 0.724%.
Take `OC(CN1CCN(Cc2cc(F)cc(F)c2)CC1)C1CC1` (configuration not stated): the cytotoxicity at 70.5 h amounted to 28.5%.
The value for `COCCN1CCOCC12CCN(C(=O)Cc1cccs1)CC2` was -6.94%; that for `CC1CCN(C(=O)[C@H]2C[C@@H]3CCN(CC4CCOCC4)C[C@@H]3O2)CC1` was -6.29%; that for `Cn1nc(COc2cncnc2)c2c1CCN(Cc1ccccn1)C2` was 6.46%.
Take `Cn1nc(COc2cncnc2)c2c1CCN(Cc1ccco1)C2`: the cytotoxicity at 70.5 h is 6.82%.
The value for `CCS(=O)(=O)NC[C@]12COC[C@H]1CN(CCc1ccccc1)C2` was -5.39%; that for `CC(C)NC(=O)N1CC[C@@H](N(C)C)[C@@H]1Cc1ccccc1` was -10.3%.
The value for `Cc1noc(C)c1CNCC1COCc2c(-c3ccsc3)nnn2C1` (configuration not stated) was -15.2%; that for `O=C(C[C@@H]1COC[C@H]2CN(CC3CCOCC3)C[C@@H]12)N1CCCCO1` was -8.58%; that for `CC(=O)N1CCC2(CC1)COC(COCc1ccccn1)C2` (configuration not stated) was -1.84%.
As for `O=C1[C@H]2CN(C3CCOCC3)C[C@H]2CN1Cc1cccc(F)c1`, the cytotoxicity at 70.5 h was 0.427%.
With `COCCN1CCC2(COCc3c(C)nc(N4CCOCC4)nc32)C1` (configuration not stated) the figure was -1.01%; with `COc1ccc(C(=O)N2CC[C@@H]3[C@H](CC2)N(C)CCS3(=O)=O)cc1`, -7.15%.
Take `Cc1cccc(CN2C[C@@H]3CN(C4CCOCC4)C[C@@H]3C2=O)c1`: the cytotoxicity at 70.5 h was -4.96%.
With `Fc1cnccc1CN1CCC2(CCN2c2ncccn2)C1` (configuration not stated) the figure was -7.95%; with `Fc1cnccc1CN1CCCC2(CCN(c3ncccn3)CC2)C1`, -5.15%; with `CCOCc1cnc2n1CCN(Cc1nc(C)cs1)C2C` (configuration not stated), -3.1%.
Consider `Cc1ccc(N2CC[C@@H]3CN(Cc4cc[nH]n4)C[C@@H]3C2)nn1`, for which the cytotoxicity at 70.5 h was -2.82%.
For `CCS(=O)(=O)NC[C@]12COC[C@H]1CN(Cc1ccncc1)C2`, the cytotoxicity at 70.5 h was -5.02%.
`CC(C)NC(=O)N1CC[C@@H](N(C)C)[C@@H]1Cc1ccncc1`: the cytotoxicity at 70.5 h was -6.16%.
For the compound `CS(=O)(=O)N1CCC2(CCCN(Cc3ccccn3)C2)C1` (configuration not stated), the cytotoxicity at 70.5 h came to 9.19%.
On to `CN(Cc1cccnc1)C[C@@H]1OC[C@H]2CN(C(=O)C3CC3)CC[C@H]21`, for which the cytotoxicity at 70.5 h was -5.43%.
Turning to `O=C1[C@H]2CN(C3CCOCC3)C[C@H]2CN1Cc1ccncc1`, the cytotoxicity at 70.5 h was -8.99%.
On to `CN(Cc1cccnc1)C[C@@H]1OC[C@H]2CN(Cc3ccco3)CC[C@H]21`, for which the cytotoxicity at 70.5 h is -2.49%.

Source of the values: ChEMBL document CHEMBL3507680, “University of Dundee, Gates Library screen for HepG2 cell viability”.
